Source: patent US7396837B2, “Antitumoral analogs of lamellarins” (Pharma Mar, S.A.U., priority 2002, dated 2008)
Read-outs that look alike come from different tables or passages of the source.

Experiments:
PANC-1 = experiment: SRB colorimetric cell growth inhibition assay, PANC-1; assay type: cell-based; settings: Homo sapiens; for CC50: cell killing (cytotoxic effect), read-out: LC50 PANC-1; for IC (TGI): total growth inhibition (cytostatic effect), read-out: TGI PANC-1; for GI50: GI=growth inhibition, read-out: GI50 PANC-1
How it was run: (§1)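 Cancer cells grown in vitro were continuously treated with compound. Cell mass was then determined by SRB staining and expressed as growth inhibition.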

A-549 = experiment: SRB colorimetric cell growth inhibition assay, A-549; assay type: cell-based; settings: Homo sapiens, A549, A-549; for GI50: GI=growth inhibition, read-out: GI50 A-549; for CC50: cell killing (cytotoxic effect), read-out: LC50 A-549; for IC (TGI): total growth inhibition (cytostatic effect), read-out: TGI A-549
How it was run: as §1

SK-MEL-28 = experiment: SRB colorimetric cell growth inhibition assay, SK-MEL-28; assay type: cell-based; settings: Homo sapiens, SK-MEL-28, MEL-28; for GI50: GI=growth inhibition, read-out: GI50 MEL-28; for CC50: read-out: LC50 MEL-28; for IC (TGI): read-out: TGI MEL-28
How it was run: as §1

LNCaP = experiment: SRB colorimetric cell growth inhibition assay, LNCaP; assay type: cell-based; settings: Homo sapiens, LNCaP, LN-caP; for GI50: GI=growth inhibition, read-out: GI50 LN-caP; for CC50: read-out: LC50 LN-caP; for IC (TGI): read-out: TGI LN-caP
How it was run: as §1

IGROV-ET = experiment: SRB colorimetric cell growth inhibition assay, IGROV-ET (ET-743 resistant); assay type: cell-based; settings: Homo sapiens, IGROV-ET; for GI50: GI=growth inhibition, read-out: GI50 IGROV-ET; for CC50: read-out: LC50 IGROV-ET; for IC (TGI): read-out: TGI IGROV-ET
How it was run: as §1

IGROV = experiment: SRB colorimetric cell growth inhibition assay, IGROV; assay type: cell-based
How it was run: as §1

HT-29 = experiment: SRB colorimetric cell growth inhibition assay, HT-29; assay type: cell-based; settings: Homo sapiens; for CC50: cell killing (cytotoxic effect), read-out: LC50 HT-29; for GI50: GI=growth inhibition, read-out: GI50 HT-29; for IC (TGI): total growth inhibition (cytostatic effect), read-out: TGI HT-29
How it was run: as §1

DU-145 = experiment: SRB colorimetric cell growth inhibition assay, DU-145; assay type: cell-based; settings: Homo sapiens; for CC50: read-out: LC50 DU-145; for GI50: GI=growth inhibition, read-out: GI50 DU-145; for IC (TGI): read-out: TGI DU-145
How it was run: as §1

LoVo-Dox = experiment: SRB colorimetric cell growth inhibition assay, LoVo-Dox (MDR); assay type: cell-based; settings: Homo sapiens, LOVO-DOX; for GI50: GI=growth inhibition, read-out: GI50 LOVO-DOX; for CC50: cell killing (cytotoxic effect), read-out: LC50 LOVO-DOX; for IC (TGI): total growth inhibition (cytostatic effect), read-out: TGI LOVO-DOX
How it was run: as §1

K-562 = experiment: SRB colorimetric cell growth inhibition assay, K-562; assay type: cell-based; settings: Homo sapiens, K562, K-562; for GI50: GI=growth inhibition, read-out: GI50 K-562; for CC50: cell killing (cytotoxic effect), read-out: LC50 K-562; for IC (TGI): total growth inhibition (cytostatic effect), read-out: TGI K-562
How it was run: as §1

LoVo = experiment: SRB colorimetric cell growth inhibition assay, LoVo; assay type: cell-based; settings: Homo sapiens; for CC50: cell killing (cytotoxic effect), read-out: LC50 LOVO; for GI50: GI=growth inhibition, read-out: GI50 LOVO; for IC (TGI): total growth inhibition (cytostatic effect), read-out: TGI LOVO
How it was run: as §1

SK-BR-3 = experiment: SRB colorimetric cell growth inhibition assay, SK-BR-3; assay type: cell-based; settings: Homo sapiens; for CC50: read-out: LC50 SK-BR-3; for GI50: GI=growth inhibition, read-out: GI50 SK-BR-3; for IC (TGI): read-out: TGI SK-BR-3
How it was run: as §1

human topoisomerase I = target: T1, human topoisomerase I (Homo sapiens, UniProt P11387); experiment: Topoisomerase I DNA relaxation assay (supercoiled plasmid DNA); assay type: biochemical; settings: supercoiled plasmid DNA, each compound tested at 1 μM, agarose gel with ethidium bromide
T1 sequence (P11387 1-765): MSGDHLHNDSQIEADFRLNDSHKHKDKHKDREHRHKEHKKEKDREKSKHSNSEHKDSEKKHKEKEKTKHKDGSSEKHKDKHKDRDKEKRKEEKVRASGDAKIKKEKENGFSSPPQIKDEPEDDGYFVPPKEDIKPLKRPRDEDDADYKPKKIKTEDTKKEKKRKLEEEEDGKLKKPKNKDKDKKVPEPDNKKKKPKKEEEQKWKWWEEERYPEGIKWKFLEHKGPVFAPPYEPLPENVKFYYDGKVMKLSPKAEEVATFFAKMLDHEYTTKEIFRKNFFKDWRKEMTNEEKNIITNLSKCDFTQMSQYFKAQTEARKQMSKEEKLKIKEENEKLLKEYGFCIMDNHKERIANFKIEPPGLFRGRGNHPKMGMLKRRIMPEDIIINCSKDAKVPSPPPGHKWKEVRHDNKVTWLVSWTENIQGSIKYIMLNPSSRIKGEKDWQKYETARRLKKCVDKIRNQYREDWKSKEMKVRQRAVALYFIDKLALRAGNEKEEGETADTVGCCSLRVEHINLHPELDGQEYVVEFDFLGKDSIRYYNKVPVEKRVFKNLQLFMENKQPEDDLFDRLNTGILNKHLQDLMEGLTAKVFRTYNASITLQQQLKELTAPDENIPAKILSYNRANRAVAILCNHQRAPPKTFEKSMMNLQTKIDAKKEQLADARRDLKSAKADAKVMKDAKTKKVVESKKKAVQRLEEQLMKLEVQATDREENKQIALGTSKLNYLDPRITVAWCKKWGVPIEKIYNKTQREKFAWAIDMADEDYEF
How it was run: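 Supercoiled plasmid DNA was relaxed by human topoisomerase I with or without test compound at 1 μM. Products were resolved by agarose gel electrophoresis with ethidium bromide staining.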

[1] = cell killing (cytotoxic effect)
[2] = total growth inhibition (cytostatic effect)
[3] = Homo sapiens, IGROV; cell killing (cytotoxic effect); read-out: LC50 IGROV
[4] = DU-145, DU-145, cell killing (cytotoxic effect)
[5] = SK-BR-3, SK-BR-3, cell killing (cytotoxic effect)
[6] = LC=cell killing (cytotoxic effect)
[7] = TGI=total growth inhibition (cytostatic effect)
[8] = Homo sapiens, IGROV; GI=growth inhibition; read-out: GI50 IGROV

## COc1cc(-c2c3n(c4c(=O)oc5cc(OC(=O)[C@H](C)NC(=O)[C@H](C)NC(=O)OC(C)(C)C)c(OC)cc5c24)CCc2cc(OC(=O)[C@H](C)NC(=O)[C@H](C)NC(=O)OC(C)(C)C)c(OC)cc2-3)ccc1OC(=O)[C@H](C)NC(=O)[C@H](C)NC(=O)OC(C)(C)C [Compound 7]
PANC-1; PANC-1, PANC-1
  CC50: 8.04 µM
  IC (TGI): 3.31 µM
PANC-1; PANC-1
  GI50: 1360 nM
A-549
  GI50: 969 nM
  CC50: 8.14 µM
  IC (TGI): 2.96 µM
SK-MEL-28
  GI50: 652 nM
SK-MEL-28; [1]
  CC50: 3.75 µM
SK-MEL-28; [2]
  IC (TGI): 1.64 µM
LNCaP
  GI50: 425 nM
LNCaP; [1]
  CC50: 3.61 µM
LNCaP; [2]
  IC (TGI): 1.36 µM
IGROV-ET
  GI50: 1.86 µM
IGROV-ET; [1]
  CC50: 8.14 µM
IGROV-ET; [2]
  IC (TGI): 4.58 µM
IGROV; [3]
  CC50: 5.79 µM
IGROV; Homo sapiens; IGROV; GI=growth inhibition; read-out: GI50 IGROV
  GI50: 1230 nM
IGROV; Homo sapiens; IGROV; total growth inhibition (cytostatic effect); read-out: TGI IGROV
  IC (TGI): 2.67 µM
HT-29; HT-29, HT-29
  CC50: 8.14 µM
HT-29; HT-29
  GI50: 871 nM
  IC (TGI): 3.31 µM
DU-145; [4]
  CC50: 5.41 µM
DU-145; DU-145
  GI50: 993 nM
DU-145; DU-145, total growth inhibition (cytostatic effect)
  IC (TGI): 2.31 µM
LoVo-Dox
  GI50: 3.66 µM
  CC50: 8.14 µM
  IC (TGI): 8.14 µM
K-562
  GI50: 596 nM
  CC50: 8.14 µM
  IC (TGI): 2.68 µM
LoVo; LoVo
  CC50: 8.14 µM
LoVo; LOVO
  GI50: 2000 nM
  IC (TGI): 5.05 µM
SK-BR-3; [5]
  CC50: 5.98 µM
SK-BR-3; SK-BR-3
  GI50: 1140 nM
SK-BR-3; SK-BR-3, total growth inhibition (cytostatic effect)
  IC (TGI): 2.61 µM

## COc1cc(-c2c3n(c4c(=O)oc5cc(O)c(OC)cc5c24)CCc2cc(O)c(OC)cc2-3)ccc1O [Compound 109]
Human topoisomerase I
  stimulation of DNA cleavage by topoisomerase I / inhibition of topoisomerase I (nicked DNA band) in DNA relaxation assay: inactive
PANC-1; PANC-1, PANC-1
  GI50: 5700 nM
  CC50: 19.9 µM
  IC (TGI): 19.9 µM
A-549
  GI50: 5940 nM
  CC50: 19.9 µM
  IC (TGI): 14.1 µM
SK-MEL-28
  GI50: 885 nM
SK-MEL-28; [6]
  CC50: 10.8 µM
SK-MEL-28; [7]
  IC (TGI): 2.57 µM
LNCaP
  GI50: 1160 nM
LNCaP; [6]
  CC50: 19.9 µM
LNCaP; [7]
  IC (TGI): 1.99 µM
IGROV-ET
  GI50: 9.67 µM
IGROV-ET; [6]
  CC50: 19.9 µM
IGROV-ET; [7]
  IC (TGI): 19.9 µM
IGROV; [8]
  GI50: 1800 nM
IGROV; Homo sapiens, IGROV; LC=cell killing (cytotoxic effect); read-out: LC50 IGROV
  CC50: 19.9 µM
IGROV; Homo sapiens, IGROV; TGI=total growth inhibition (cytostatic effect); read-out: TGI IGROV
  IC (TGI): 6.08 µM
HT-29; HT-29, HT-29
  GI50: 4810 nM
  CC50: 19.9 µM
  IC (TGI): 19.9 µM
DU-145; DU-145, DU-145
  GI50: 2990 nM
DU-145; DU-145, DU-145, LC=cell killing (cytotoxic effect)
  CC50: 19.9 µM
DU-145; DU-145, DU-145, TGI=total growth inhibition (cytostatic effect)
  IC (TGI): 15.4 µM
LoVo-Dox
  GI50: 5.64 µM
  CC50: 19.9 µM
  IC (TGI): 13.5 µM
K-562
  GI50: 425 nM
  CC50: 19.9 µM
  IC (TGI): 19.9 µM
LoVo; LoVo
  GI50: 917 nM
  CC50: 19.9 µM
  IC (TGI): 4.07 µM
SK-BR-3; SK-BR-3, SK-BR-3
  GI50: 3450 nM
SK-BR-3; SK-BR-3, SK-BR-3, LC=cell killing (cytotoxic effect)
  CC50: 19 µM
SK-BR-3; SK-BR-3, SK-BR-3, TGI=total growth inhibition (cytostatic effect)
  IC (TGI): 8.1 µM

## COc1cc(-c2c3n(c4c(=O)oc5cc(OC(=O)CCc6ccccc6)c(OC)cc5c24)CCc2cc(OC(=O)CCc4ccccc4)c(OC)cc2-3)ccc1OC(=O)CCc1ccccc1 [Compound 11]
Human topoisomerase I
  stimulation of DNA cleavage by topoisomerase I / inhibition of topoisomerase I (nicked DNA band) in DNA relaxation assay: inactive
PANC-1; PANC-1, PANC-1
  GI50: 214 nM
  CC50: 11.1 µM
  IC (TGI): 1.76 µM
A-549
  GI50: 128 nM
  CC50: 11.1 µM
  IC (TGI): 1.54 µM
SK-MEL-28
  GI50: 200 nM
SK-MEL-28; [1]
  CC50: 6.18 µM
SK-MEL-28; [2]
  IC (TGI): 1.18 µM
IGROV-ET
  GI50: 5.53 µM
IGROV-ET; [1]
  CC50: 11.1 µM
IGROV-ET; [2]
  IC (TGI): 11.1 µM
IGROV; [8]
  GI50: 267 nM
IGROV; [3]
  CC50: 5.88 µM
IGROV; Homo sapiens, IGROV; total growth inhibition (cytostatic effect); read-out: TGI IGROV
  IC (TGI): 1.14 µM
HT-29; HT-29, HT-29
  GI50: 38.4 nM
  CC50: 8.23 µM
  IC (TGI): 0.175 µM
DU-145; DU-145, DU-145
  GI50: 35.3 nM
DU-145; [4]
  CC50: 2.78 µM
DU-145; DU-145, DU-145, total growth inhibition (cytostatic effect)
  IC (TGI): 0.151 µM
LoVo-Dox
  GI50: 11.1 µM
  CC50: 11.1 µM
  IC (TGI): 11.1 µM
LoVo; LoVo
  GI50: 42.4 nM
  CC50: 10.4 µM
  IC (TGI): 1.16 µM
SK-BR-3; SK-BR-3, SK-BR-3
  GI50: 187 nM
SK-BR-3; [5]
  CC50: 6.66 µM
SK-BR-3; SK-BR-3, SK-BR-3, total growth inhibition (cytostatic effect)
  IC (TGI): 1.2 µM
